Measured values: the METLIN SMRT retention time set (Domingo-Almenara et al. 2019)

Assay: gradient 5% acetonitrile 3 min, to 50% in 2 min, to 85% in 15 min, held 3 min, 100 µL/min
Settings: column: Zorbax Extend-C18 2.1 x 50 mm; eluents: water / acetonitrile, 0.1% formic acid
How it was run: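 Standards, all pure, were combined into mixtures of ~100 molecules and run at 100 μL/min on a Zorbax Extend-C18 column (2.1 × 50 mm, 1.8 μm) with water and acetonitrile, each containing 0.1% formic acid. A coupled quadrupole time-of-flight mass spectrometer operated in positive and negative ionization mode. Retention time values come from computationally picked adduct peaks, each inspected manually.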

| Compound | RP-LC retention time [s] |
| --- | --- |
| Nc1ccc(Cl)cc1C(=O)c1ccccc1Cl | 1140 |
| COc1ccc2c(c1)C1(CCN(C(=O)NC(C)(C)C)C1)C(=O)N2 (stereo not given) | 695 |
| Cc1onc(-c2ccccc2Cl)c1C(=O)NC1CC(=O)N(C2CC2)C1 (stereo not given) | 636 |
| COCc1nncn1C1CCN(S(=O)(=O)c2ccc(C(F)(F)F)cc2)CC1 | 764 |
| CC(C)c1ccc(S(=O)(=O)N2C[C@@H](F)C[C@H]2C(=O)N2CCc3ccccc3C2)cc1 | 1060 |
| O=C(OCCN1CCCCC1)c1c[nH]c2ccccc12 | 666 |
| N#Cc1ccc(C(=O)N2CCCC2c2nc(-c3ccccc3)n[nH]2)cc1 (stereo not given) | 696 |
| CCn1cnnc1C1CCCN(C(=O)CCc2c[nH]c3ccccc23)C1 (stereo not given) | 612 |
| c1cn(-c2ccc(-c3noc(-c4ccc5c(c4)OCO5)n3)cn2)cn1 | 853 |
| CC1CCCCN1c1cc(-n2cnc(C(=O)N3CCCCC3)c2)ncn1 (stereo not given) | 880 |
| C[C@@]1(O)CCN(Cc2cccc(F)c2F)C[C@H]1N1CCCC1 | 563 |
| CCS(=O)(=O)NCc1ccc2c(c1)CCN2C(=O)c1cccc(C)c1 | 815 |
| CS(=O)(=O)N1CCCc2cc(C(=O)NCc3cccnc3)ccc21 | 574 |
| O=c1c2cc(-c3ccccc3)nn2ccn1Cc1noc(CN2CCCCCCC2)n1 | 705 |
| COC(=O)C1CCN(C(=O)C(=O)Nc2c3c(nn2-c2ccc(Cl)cc2)CSC3)CC1 | 671 |
| O=C(OCC(O)COC(=O)c1cccnc1)c1cccnc1 | 624 |
| COC(=O)c1sccc1NC(=O)C1CCCN(c2ncnc3c2nc2n3CCCCC2)C1 (stereo not given) | 922 |
| CCCNc1cc(N2CCC(CCC(=O)NCc3ccccc3Cl)CC2)ncn1 | 718 |
| Cc1ccc(CNC(=O)C2CCN(S(=O)(=O)c3cc(C(=O)N4CCCC4)n(C)c3)CC2)cc1 | 872 |
| CCCN1CCN(C(=O)c2noc3c2CCCCC3)CC1 | 613 |
| CCCC(=O)N1CC(=O)Nc2ccc(Br)cc2C1c1ccccc1 (stereo not given) | 892 |
| Cc1cc(N2CCCC2)n2nc(CN3CCN(c4ccccc4C)CC3)nc2n1 | 1210 |

| Compound | RP-LC retention time [s] |
| --- | --- |
| O=C1CC(C(=O)N2CCc3ccccc3C2)CN1CCc1c[nH]c2ccc(Cl)cc12 (stereo not given) | 879 |
| CCn1cnc(S(=O)(=O)N2CCC(C(=O)NCc3ccc4c(c3)OCO4)CC2)c1 | 684 |
| Fc1cc(F)c2nc(NCc3ccco3)sc2c1 | 879 |
| CCOC(=O)C1CCN(c2cc3c(cc2NC(=O)CCC2CCCC2)n(C)c(=O)c(=O)n3C)CC1 | 999 |
| CCOC(=O)C(C)NC(=O)N1CCN(c2nc3ccccc3nc2C(F)(F)F)CC1 (stereo not given) | 921 |
| Cc1nn(-c2ccc(N3CCCCC3)nn2)c(C)c1CCC(=O)NCCc1ccco1 | 660 |
| Cc1ccc(-c2nc(-c3ccc(S(=O)(=O)N4CCC(C(=O)N5CCCC5)CC4)cc3)no2)cc1 | 1090 |
| CC(C)CN1C(=O)CCc2cc(NS(=O)(=O)c3cccc(Cl)c3)ccc21 | 932 |
| Cc1ccc(NC(=O)C(=O)NCC2CCN(S(=O)(=O)C3CC3)CC2)cc1F | 828 |
| O=C(NCC(c1cccnc1)N1CCOCC1)c1ccccc1 (stereo not given) | 522 |
| CCOC(=O)C(C(=O)NCCCN1CCOCC1)C1CCCCC1 (stereo not given) | 624 |
| CCn1c(=O)c2ccn(CC(=O)N3CCN(c4ccc(Cl)cc4)CC3)c2n(CC)c1=O | 787 |
| O=C(Cc1coc2ccc3ccccc3c12)NCc1ccco1 | 818 |
| CCOC(C)C(/C=N/NC(N)=S)=N/NC(N)=S (stereo not given) | 654 |
| O=C1CCCC(=O)N1CCS(=O)(=O)NCC1(c2ccccc2)CCOCC1 | 678 |
| CCN(CC)C(=O)c1ccc2c(c1)N(CC(=O)N1CCCC1)C(=O)C1CCCCN21 (stereo not given) | 753 |
| CC(C)CCNC(=O)CCC(=O)N1CC2CCCN2c2ccccc21 (stereo not given) | 902 |
| CCn1cnc(S(=O)(=O)N2CCCC(C(=O)Nc3ccc(F)cc3)C2)c1 (stereo not given) | 726 |
| CCOC(=O)c1ccc(N2C(=O)Cn3cccc3C2C(=O)NC2CCCCC2C)cc1 (stereo not given) | 994 |
| Cc1cnc(C)n1CC1CCN(S(=O)(=O)c2ccc(C#N)cc2)C1 (stereo not given) | 628 |
| O=C(c1ccoc1)N1CCN(C(=O)c2nnn3c2COC(c2ccc(Cl)cc2)C3)CC1 (stereo not given) | 838 |

Further lines, results first:

| RP-LC retention time [s] | Compound |
| --- | --- |
| 827 | CCCNC(=O)Nc1ccc(C)cc1C |
| 673 | CCc1ccc(OCC(=O)OCCNC(=O)c2ccncc2)cc1 |
| 668 | Cc1nn(CC(=O)NCCCN2CCCC2=O)c(=O)c2nc(-c3ccccc3)sc12 |
| 718 | O=C(NCc1ccc(F)cc1)Nc1cccn2ncnc12 |
| 636 | CCNc1nc(C)cc(N2CCN(C(=O)Nc3ccccc3)CC2)n1 |
| 924 | COc1ccc(-c2nc3c4ccccc4ncn3n2)cc1 |
| 987 | Cc1cc(-c2nnc(-c3ccc(F)cc3)o2)c(C)n1CC(=O)Nc1cccc(F)c1 |
| 620 | Cc1ccc(-c2nccn3cc(C(=O)N4CCN(C(C)C)CC4)nc23)cc1 |
| 683 | Cc1ccc(NC(=O)NCC(c2cccnc2)c2c[nH]c3ccccc23)c(C)c1 (stereo not given) |
| 772 | COc1cc(NC(=O)Cc2csc3nc(-c4ccc(C)c(C)c4)cn23)cc(OC)c1 |
| 855 | CCOC(=O)c1sc(NC(=O)c2ccncc2)nc1-c1ccccc1 |
| 919 | CCc1ccc(NC(=O)NCCc2cn(CC(C)C)c3ncccc23)cc1 |
| 952 | Cc1ccc2oc(=O)n(Cc3noc(C(=O)NCc4ccc(Br)cc4)n3)c2c1 |
| 866 | O=C(Cn1c(=O)oc2ccccc21)Nc1nc(-c2nc3ccccc3s2)cs1 |
| 1090 | Cc1cc2nn(CC(=O)Nc3ccc(F)c(F)c3)c(=O)n2c(Nc2ccc(F)c(C)c2)n1 |
| 607 | Cn1c(C(=O)NCc2ccccn2)cc2c(=O)oc3ccccc3c21 |
| 896 | CCc1nc(-c2csc(S(=O)(=O)N3CCCC(C(=O)Nc4cc(C)on4)C3)c2)no1 (stereo not given) |
| 1080 | CCc1ccc(-c2nc(-c3ccc4nnc(C)n4c3)no2)cc1 |
| 977 | Cc1ccc(CNC(=O)C2CCCN(c3nc4ccsc4c(=O)n3-c3ccc(C)cc3)C2)cc1 (stereo not given) |
| 785 | Cc1ccc2[nH]cc(CCN3CC(C(=O)Nc4nnc(C)s4)CC3=O)c2c1 (stereo not given) |
| 639 | COc1cc(NC(=O)N2CCCC(Cn3c(C)nc4cccnc43)C2)cc(OC)c1 (stereo not given) |
| 703 | COc1cc(OC)c(NC(=O)N2CC(n3cnnc3-c3ccccc3)C2)cc1Cl |
| 804 | CCn1cc(CCNS(=O)(=O)Cc2ccccc2Cl)c2cccnc21 |
| 767 | Cc1nnc(-c2cc(C)n(CC(=O)Nc3cccc(C)c3C)c2C)o1 |

| RP-LC retention time [s] | Compound |
| --- | --- |
| 1150 | COc1cccc(CNS(=O)(=O)c2ccccc2-c2nc(-c3cccc(F)c3)no2)c1 |
| 749 | CCc1cccc(NC(=O)Nc2cnn(-c3ncc(N4CCCC4)cn3)c2)c1 |
| 912 | CC1=C(c2ccc(C)c(C)c2)S(=O)(=O)N=C1N1CCCN(C(=O)C2CCCC2)CC1 |
| 838 | Cc1ccc(CN2CCN(CC(=O)Nc3cc(C)cc(C)c3)C(=O)C2=O)cc1 |
| 988 | COc1ccc(-c2nnc(COc3cccc(NC(=O)c4ccc(C)s4)c3)o2)cc1 |
| 832 | COc1ccc(-c2c(C)noc2NC(C)=O)cc1S(=O)(=O)Nc1ccc(C)cc1Br |
| 1020 | Cc1ccc(N2CC(c3nc(-c4ccccc4F)no3)CC2=O)cc1C (stereo not given) |
| 648 | Cc1nc2ccn(Cc3cccs3)c(=O)c2cc1C(=O)N1CCOCC1 |
| 854 | COc1ccc(C(=O)N2CC(=O)Nc3ccc(F)cc3C2c2ccccc2)c(OC)c1 (stereo not given) |
| 885 | COc1ccc(NC(=O)C2CCN(S(=O)(=O)c3cc(-c4noc(C)n4)cs3)CC2)c(OC)c1 |
| 1000 | COc1ccc(-c2nc(C3CC(=O)N(c4ccc(F)c(Cl)c4)C3)no2)c(OC)c1 (stereo not given) |
| 797 | Cc1cc(C)c(NC(=O)Cn2nc3c(N(C)C4CCCCC4)nccn3c2=O)c(C)c1 |
| 576 | CCn1c(N2CCN(C(=O)Nc3cccc(C(C)=O)c3)CC2)nc2ccccc21 |
| 1000 | CC(NC(=O)c1cnn2c(-c3ccc4c(c3)OCO4)ccnc12)c1ccc(F)cc1 (stereo not given) |
| 718 | COC(=O)c1cnc2nc(C)ccc2c1Nc1cccc(Br)c1 |
| 830 | Cc1cccc(NC(=O)C2CCCN(c3nc4ccccc4nc3C(F)(F)F)C2)c1C (stereo not given) |
| 1170 | Cc1ccc(Cn2c(=O)c(N3CCCC(C(=O)NCc4cccs4)C3)nc3ccccc32)cc1 (stereo not given) |
| 778 | CCCc1cc(C2CCCN2C(=O)Nc2ccc(OC)c(OC)c2)no1 (stereo not given) |
| 1090 | COc1ccc(NC(=O)/C=C/c2ccc(Cl)cc2)cc1 |
| 1000 | Clc1ccc(-c2nnc(Cc3nc(-c4cccs4)no3)o2)cc1 |
| 1100 | COc1cccc(-c2nc(Cc3nc(-c4ccccc4)oc3C)no2)c1 |
| 1030 | Fc1ccc(-c2nnc(Cc3nc(-c4ccc(F)c(F)c4)no3)o2)cc1 |
| 913 | COc1ccc(Cl)cc1S(=O)(=O)N1CCC(C(=O)Nc2ccccc2)CC1 |
